In patent publication US9206200B2, “N-linked lactam M1 receptor positive allosteric mogulators” (Merck Sharp & Dohme Corp., priority 2011, dated 2015):
Like-named read-outs stand apart in the source and are kept apart here.

Target: T1, acetylcholine muscarinic M1 receptor (Homo sapiens, UniProt P11229)
T1 construct: expressed in transfected cells; host or cells: CHOnfat cells (CHO cells with an NFAT reporter) expressing hM1, kept under Geneticin selection
T1 sequence (P11229 1-460): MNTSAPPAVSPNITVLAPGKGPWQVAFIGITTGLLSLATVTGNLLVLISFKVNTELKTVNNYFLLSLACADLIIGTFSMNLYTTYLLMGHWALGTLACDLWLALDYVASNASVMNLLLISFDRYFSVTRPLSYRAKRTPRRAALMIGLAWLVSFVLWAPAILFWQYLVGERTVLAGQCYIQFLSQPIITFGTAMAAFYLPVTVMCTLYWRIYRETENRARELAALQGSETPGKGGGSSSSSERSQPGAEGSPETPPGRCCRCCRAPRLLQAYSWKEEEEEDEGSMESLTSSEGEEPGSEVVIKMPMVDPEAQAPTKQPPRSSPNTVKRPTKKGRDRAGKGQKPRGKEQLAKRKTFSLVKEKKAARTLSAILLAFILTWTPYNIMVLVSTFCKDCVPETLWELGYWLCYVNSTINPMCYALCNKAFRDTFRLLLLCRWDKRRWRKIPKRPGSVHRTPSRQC
Test: muscarinic FLIPR assay: intracellular calcium in CHOnfat/hM1 cells, potentiation of EC20 acetylcholine
Format: cell-based
Conditions: EC20 acetylcholine (3 nM final)
Procedure: The assay studies the effect of one or several concentrations of test compounds on basal or acetylcholine-stimulated Ca^2+ levels using FLIPR.
Compounds are prepared and subjected to a preincubation period of […]. Thereafter, a single EC20 concentration of acetylcholine is added to each well (3 nM final). The intracellular Ca^2+ level of each sample is measured and compared to an acetylcholine control to determine any modulatory activity.
Cells: CHOnfat/hM1, hM2, hM3 or hM4 cells are plated 24 hr before the assay at a density of 18,000 cells/well (100 μL) in a 384 well plate. CHOnfat/hM1 and CHOnfat/hM3 Growth Medium: 90% DMEM (Hi Glucose); 10% HI FBS; 2 mM L-glutamine; 0.1 mM NEAA; Pen-Strep; and 1 mg/ml Geneticin, are added. For M2Gqi5CHOnfat and M4Gqi5CHOnfat cells, an additional 600 ug/ml hygromycin is added.
Equipment: 384 well plate, 120 μl, addition plate; 96-well Whatman 2 ml Uniplate Incubator, 37° C., 5% CO2; Skatron EMBLA-384 Plate Washer; Multimek Pipetting System; Genesis Freedom 200 System; Mosquito System; Temo Nanolitre Pipetting System; and FLIPR^384 Fluorometric Imaging Plate Reader System are used.
Buffers. Assay Buffer: Hanks Balanced Salt Solution, with 20 mM Hepes, 2.5 mM Probenecid (Sigma P-8761) first dissolved in 1 N NaOH, 1% Bovine Serum Albumin (Sigma A-9647). Dye Loading Buffer: Assay Buffer plus 1% Fetal Bovine Serum and Fluo-4AM/Pluronic Acid Mixture. 2 mM Fluo-4AM ester stock in DMSO (Molecular Probes F-14202) Concentration of 2 μM in buffer for a final concentration of 1 μM in Assay. 20% Pluronic Acid Solution stock, with concentration of 0.04% in Buffer, 0.02% in Assay.
65 μL of 2 mM Fluo-4AM are mixed with 130 μL of 20% Pluronic Acid. The resulting solution and 650 μL FBS is added to the assay buffer for a total volume of 65 mL. Positive Controls: 4-Br-A23187: 10 mM in DMSO; final concentration 10 μM. Acetylcholine: 10 mM in water, working stock at both 20 μM and 30 μM in assay buffer, final concentration of 10 μM. This is used to check the maximum stimulation of the CHOK1/hM1 cells. 20 μM (2×) acetylcholine is added in the preincubation part of the assay, and the 30 μM (3×) stock is added in the second part. (EC20)Acetylcholine: 10 mM in water, working stock of 9 nM (3×), and final concentration in assay is 3 nM. This is used after the preincubation with test compounds. Addition of the EC20 Acetylcholine to each well with a test compound will ascertain any modulator activity. 24 wells contain 3 nM Acetylcholine alone as a control.
Determining Activity of Putative Compounds:
Screening Plate Compounds are titrated in 96-well plates (columns 2-11), 100% DMSO, started at a concentration of 15 mM (150× stock concentration), and 3-fold serial dilutions using Genesis Freedom200 System. Four 96-well plates are combined into a 384-well plate using Mosquito Nanolitre Pipetting System by transferring 1 μl of serial diluted compounds to each well, and 1 mM acetylcholine (100× stock concentration) were added as a control. Using Temo, 49 μl assay buffer is added to each well of the 384-well plate right before assay.
In a 96-well Whatman 2 ml Uniplate, 9 nM Acetylcholine (3×) is pipetted into wells corresponding to the screening compounds, and into control wells. The 30 μM acetylcholine control (3×) is added into control wells, and the 3× agonist plate is transferred into a 384 well plate.
Cells are washed three times with 100 μL of buffer, leaving […] of buffer in each well. Using Multimek, 30 μL of Dye Loading Buffer is added into each well and incubated at 37° C., 5% CO2 for up to one hr.
After 60 min, the cells are washed three times with 100 μL of buffer, leaving 30 μL of buffer in each well. The cell plate, screening plate, and agonist addition plates are placed on the platform in the FLIPR and the door closed. A signal test to check background fluorescence and basal fluorescence signal is performed. Laser intensity is adjusted if necessary.

[1] = Table 2, CHOnfat/hM1 cells, FLIPR, read-out: M1 Pot.
[2] = Table 1, CHOnfat/hM1 cells, FLIPR, read-out: M1 Pot.

SMILES | EC50 [1] [nM] | EC50 [2] [nM] | also measured
O=C1c2cc(CN3CCC(F)(C#Cc4ccc(F)cc4)CC3)c3cccnc3c2CN1C1CCCCC1O (stereo not shown) [Example 133, 5-({4-fluoro-4-[(4-fluorophenyl)ethynyl]piperidin-1-yl}methyl)-8-(2-hydroxycyclohexyl)-8,9-dihydro-7H-pyrrolo[3,4-h]quinolin-7-one] | 129 |  | 
CC1c2c(cc(CN3CCC(F)(C#N)CC3)c3cccnc23)C(=O)N1C1CCCCC1O (single isomer, unassigned) [Example 119, 4-fluoro-1-{[8-(2-hydroxycyclohexyl)-9-methyl-7-oxo-8,9-dihydro-7H-pyrrolo[3,4-h]quinolin-5-yl]methyl}piperidine-4-carbonitrile] | 44 |  | 
CC1c2c(cc(CN3CCN(c4cccnc4)CC3)c3cccnc23)C(=O)N1C1CCCCC1O (stereo not shown) [Example 163, 8-(2-hydroxycyclohexyl)-9-methyl-5-[(4-pyridin-3-ylpiperazin-1-yl)methyl]-8,9-dihydro-7H-pyrrolo[3,4-h]quinolin-7-one] | 520 |  | 
Cc1ccccc1C1(C#N)CCN(Cc2cc3c(c4ccccc24)CN([C@@H]2CCCC[C@@H]2O)C3=O)CC1 [Example 61, 1-({2-[(1R,2S)-2-hydroxycyclohexyl]-3-oxo-2,3-dihydro-1H-benzo[e]isoindol-5-yl}methyl)-4-(2-methylphenyl)piperidine-4-carbonitrile] |  | 107 | 
CN(C)C(=O)Oc1cccc(N2Cc3c(cc(CN4CCC(F)(F)CC4)c4cccnc34)C2=O)c1 [Example 10, 3-{5-[(4,4-Difluoropiperidin-1-yl)methyl]-7-oxo-7,9-dihydro-8H-pyrrolo[3,4-h]quinolin-8-yl}phenyl dimethylcarbamate] |  |  | EC50 (IP Value (nM), Table 3, inflection point calculated from the FLIPR values): 2260 nM
O=C1c2cc(CN3CCC(F)(F)CC3)c3cccnc3c2CN1[C@H]1CCOC[C@@H]1O [Example 7, 1,5-Anhydro-2,3-dideoxy-3-{5-[(4,4-difluoropiperidin-1-yl)methyl]-7-oxo-7,9-dihydro-8H-pyrrolo[3,4-h]quinolin-8-yl}-L-threo-pentitol] |  |  | EC50 (Table 3, inflection point calculated from the FLIPR values, read-out: IP Value): 147 nM
CC1CCN(Cc2cc3c(c4ccccc24)CN([C@H]2CCCC[C@@H]2O)C3=O)CC1 [Example 21, 2-[(1S,2S)-2-hydroxycyclohexyl]-5-[(4-methylpiperidin-1-yl)methyl]-1,2-dihydro-3H-benzo[e]isoindol-3-one] |  | 1500 | 
O=C1c2cc(CN3CCOCC3)c3ccccc3c2CN1C1CCCCC1O (stereo not shown) [Example 24, 2-(2-hydroxycyclohexyl)-5-(morpholin-4-ylmethyl)-1,2-dihydro-3H-benzo[e]isoindol-3-one] |  | 150 | 
CC1c2c(cc(CN3CCC(c4ccncc4)CC3)c3cccnc23)C(=O)N1C1CCCCC1O (stereo not shown) [Example 143, 8-(2-hydroxycyclohexyl)-9-methyl-5-[(4-pyridin-4-ylpiperidin-1-yl)methyl]-8,9-dihydro-7H-pyrrolo[3,4-h]quinolin-7-one] | 89 |  | 
CC1c2c(cc(CN3CCC(c4ccccc4)CC3)c3cccnc23)C(=O)N1C1CCCCC1O (stereo not shown) [Example 140, 8-(2-hydroxycyclohexyl)-9-methyl-5-[(4-phenylpiperidin-1-yl)methyl]-8,9-dihydro-7H-pyrrolo[3,4-h]quinolin-7-one] | 3200 |  | 
O=C1c2cc(CN3CCC(F)(F)CC3)c3cccnc3c2CN1C1CCCCC1O (stereo not shown) [Example 116, 5-[(4,4-difluoropiperidin-1-yl)methyl]-8-(2-hydroxycyclohexyl)-8,9-dihydro-7H-pyrrolo[3,4-h]quinolin-7-one] | 21 |  | 
C#CC1(F)CCN(Cc2cc3c(c4ncccc24)CN(c2cccc(OC(=O)N(C)C)c2)C3=O)CC1 [Example 130, 3-{5-[(4-ethynyl-4-fluoropiperidin-1-yl)methyl]-7-oxo-7,9-dihydro-8H-pyrrolo[3,4-h]quinolin-8-yl}phenyl dimethylcarbamate] |  |  | EC50 (M1 Pot., Table 2, CHOnfat/hM1 cells, FLIPR): 1430 nM
O=C1c2cc(CN3CCC(F)(c4ccccc4)CC3)c3ccccc3c2CN1[C@@H]1CCCC[C@H]1O [Example 53, 5-[(4-fluoro-4-phenylpiperidin-1-yl)methyl]-2-[(1R,2R)-2-hydroxycyclohexyl]-1,2-dihydro-3H-benzo[e]isoindol-3-one] |  | 248 | 
